Each block holds one molecule with its values, some of them ahead of it. Starred links: 1 amine or outer side, 2 acyl side, 3 side chain; linkers in the order of their positions; H or OH if unused. Positions of bridges follow the written chain, without caps; N, C: chain ends. Non-standard residues stand in square brackets, D forms with d. Residues, ends and D or L forms follow the SMILES beside them. No end group written: not given here. Cysteamide = C(CS[*:3])N[*:1]; AEEEA = NCCOCCOCCOCC(=O)O
Experiments:
LoVo cell line = assay: Cytotoxicity assay (MTT); type: cell-based, human
Experimental: […] The measurement of cell viability was done with MTT (Thiazolyl blue, Sigma M-5655) tetrazolium salt. MTT is cleaved to water-insoluble formazan dye by the “succinate-tetrazolium reductase” system, which is active only in viable cells. After formazan was solubilized by 10% SDS-0.01 M HCl, it was quantified in an ELISA spectrometer (ThermoLabsystems Multiscan EX) at 560 nm. CuSAO2 [trans-bis(salicylaldoximato)copper(II)] 7.5 μg/ml was used as a positive control for 100% toxicity.
Procedure. Cells were trypsinized from the cell culture dish (ø9 cm) with 1 ml of TE for 1-5 minutes and moved to a 50 ml Falcon tube. After this the volume was increased to 20 ml of cell line specific medium and cells were transferred to a Bürker chamber and diluted in medium to a concentration of 2500-3500 cells/100 μl depending on cell line. […]
Next day 40 μl of medium was removed from all wells except from the ones with only medium and one column with cells. […] The next day the cell morphology was analyzed with a microscope. […]
The next day, the MTT assay described above was performed. The viable count (v.c.) was calculated as: [formula]

Athymic nude mice = assay: In vivo toxicity study; conditions: 1 mg i.v. into tail vein; observed 30 min after injection and 15 min on the following day
Experimental: 1 mg of targeting unit HP203 (described in Example 2) was injected i.v. into the tail vein of three Athymic nude mice in a volume of 100 μl of sterile physiological saline. The behavior of mice was observed during 30 min right after injection and during 15 min on the following day (comparison to non-injected mouse).

[1] = system: HSC-3 oral cancer cell line; assay: Cell binding assay to immobilized targeting agents; type: cell-based, human; conditions: wells coated at 30 μg/ml, 75000 cells, 30 minutes at 37° C., MTT detection
Experimental: The human oral squamous cell carcinoma line HSC-3, called herein “HSC-3” (JCRB Cell Bank 0623, National Institute of Health Sciences, Japan) was cultivated in 1:1 DMEM and Ham's F 12 medium containing 10% FBS, 1% penicillin/streptomycin, L-glutamate and sodium pyruvate and 0.4 ng/ml hydrocortisone.
(§1) Preparation of plates for assays. Wells of Reacti-Bind Maleimide activated clear strip plate (Pierce, Prod#. 15150) were coated with targeting agents of this invention at a concentration of 30 μg/ml. The incubation was carried out of overnight at 20° C. The binding buffer containing unbound peptide was removed from the wells.
(§2) The wells were blocked with blocking buffer (0.5% BSA, 0.05% Tween20 in phosphate buffer saline (PBS). PBS was prepared as follows: 40 g of NaCl, 1 g of KCl, 7 g of Na2HPO4×2H2O and 1 g of KH2PO4 were dissolved in 1000 ml of deionized H2O. Blank wells as controls were prepared by treating empty wells with blocking buffer. The plates were incubated 1 hour 30 min at 20° C. After incubation the plate was washed three times with PBS, pH 7.4.
(§3) Cell binding assay. 75000 cells in volume of 150 μl of medium were added into coated wells and were incubated for 30 minutes at 37° C. After cell binding, the wells were washed with PBS for 30 minutes. […] On following day the absorbance of plate was measured at 560 nm with ELISA-reader (ThermoLabsystems, Multiskan EX). […]

HCT-15-LM1 cell line = assay: Cell binding assay to immobilized targeting agents; type: cell-based, human; conditions: wells coated at 30 μg/ml, 75000 cells, 30 minutes at 37° C., MTT detection
From the text: The colorectal cancer cell line HCT-15-LM1 was developed as follows. The cell culture was started with cancer cells from lung metastases which had developed after injection of human colorectal cancer HCT-15 cells into the bloodstream of a mouse. The inoculation procedure was then repeated with HCT-15-LM1 cells leading to the establishment of another metastatic cell line, HCT-15-LM2.
as §1, §2
Cell binding assay. 75000 cells in volume of 150 μl of medium were added into coated wells and were incubated for 30 minutes at 37° C. […] On following day the absorbance of plate was measured at 560 nm with ELISA-reader (ThermoLabsystems, Multiskan EX). […]

[2] = system: C8161T melanoma cell line; assay: Cell binding assay to immobilized targeting agents; type: cell-based, human; conditions: wells coated at 30 μg/ml, 75000 cells, 30 minutes at 37° C., MTT detection
Experimental: The human melanoma cell line C8161 has been described previously by Welch et al. in Int. J. Cancer, 1991, 47: 227-237. A more metastatic cell line C8161T, called herein also “C8161T”, was developed by culturing cells from a subcutaneous melanoma tumor developed after inoculation of C8161 melanoma cells on the flank of a nude mouse. The cell line was cultured in DMEM medium adjusted to contain 2 mM L-glutamine, 1% penicillin/streptomycin, and 10% fetal bovine serum.
as §1, §2
Cell binding assay. […] On following day the absorbance of plate was measured at 560 nm with ELISA-reader (ThermoLabsystems, Multiskan EX). […]

HCT-15 cell line = assay: Cell binding assay to immobilized targeting agents; type: cell-based, human; conditions: wells coated at 30 μg/ml, 75000 cells, 30 minutes at 37° C., MTT detection
Experimental: The human colorectal cancer HCT-15 cell line (ATCC: CCL-225), called herein also “HCT-15”, was cultured in RPMI 1640 medium with 2 mM L-glutamine adjusted to contain 1.5 g/L sodium bicarbonate, 4.5 g/L glucose, 10 mM HEPES, and 1.0 mM sodium pyruvate, 1% penicillin/streptomycin, 10% fetal bovine serum.
as §1, §2, §3

[3] = system: murine endothelial cell line SVEC4-10; assay: Cell binding assay to immobilized targeting agents (control cell line); type: cell-based, mouse; conditions: control cell line SVEC4-10; wells coated at 30 μg/ml; 75000 cells, 30 minutes at 37° C.; MTT detection
Experimental: The mouse vascular endothelial cell line SVEC4-10, called herein also “SVEC4-10”, has been described previously by O'Connell et al. in J. Immunol., 1990, 144: 521-525. The cell line was cultured in DMEM medium adjusted to contain 2 mM L-glutamine, 1% penicillin/streptomycin, and 10% fetal bovine serum.
as §1, §2, §3

[4] = system: mouse fibroblast cell line NIH3T3; assay: as above; type: cell-based; conditions: wells coated at 30 μg/ml, 75000 cells, 30 minutes at 37° C., MTT detection
Experimental: The mouse fibroblast line NIH3T3, called herein also “NIH3T3”, has been described previously by Koga et al. in Gann, 1979, 70: 585-591. The cell line was cultured in DMEM medium adjusted to contain 2 mM L-glutamine, 1% penicillin/streptomycin, and 10% fetal bovine serum.
as §1, §2, §3

[5] = system: lung metastases of colorectal cancer patients; assay: Bio-panning of phage display library on clinical tumor samples; type: binding, human; conditions: phage-displayed CX7C library; ex vivo panning round three
From the text: Phage display library. Standard procedures according to Smith and Scott (ibid.) were used. Phage display library used for screening of clinical samples was cloned in fUSE5 vector and was of the cyclic structure CX7C. The E. coli strain K91kan was used as host for phage amplification.
Phage display on clinical tumor samples. Tissue samples were surgically removed from lung metastases of colorectal cancer patients. Part of the sample was taken for pathological examination, rest was placed in ice cold DMEM-PI (Dulbecco's medium containing protease inhibitors PI; 10 mM PMSF (Phenyl-methyl-sulphonyl-fluoride), Aprotinin (10 mg/ml) Leupeptin (10 mg/ml)). Tissue samples were minced with a razor blade in a small cell culture plate in 1 ml of DMEM containing protease inhibitors. The samples were transferred to an eppendorf tube and washed with 1 ml DMEM-PI.
Samples were centrifuged at 5000 rpm for 4 min and were then incubated with […] transducing units of phage in 1 ml DMEM-PI at 25° C. for 15 min.
1 ml K91kan bacteria, OD600: 1-1.5, in LB containing 100 μg/ml kanamycin (kan) were infected with the washed pellet containing selectively attached phage particles at 25° C. for 25 min. […]
Then the bacteria were pelleted at 5000 rpm for 15 min. […] For the next rounds of bio-panning of clinical samples the titre of the TBS phage stock was determined as described above. […]

Molecule: [Cu+2].[O-]c1ccccc1C=NO.[O-]c1ccccc1C=NO [CuSAO2, trans-bis(salicylaldoximato)copper(II), reference compound]
- cell killing (LoVo cell line; 7.5 μg/ml, positive control): 100%

Molecule: CC(C)C[C@@H]1NC(=O)[C@H](Cc2ccccc2)NC(=O)CNC(=O)[C@H](Cc2ccc(O)cc2)NC(=O)[C@@H](NC(=O)[C@H](C)NC(=O)CNC(=O)[C@H](CC(=O)O)NC(=O)[C@H](C)N)CSSC[C@@H](C(=O)NCCOCCOCCOCC(=O)NCCOCCOCCOCC(=O)NCCOCCOCCOCC(N)=O)NC(=O)[C@H](CCC(N)=O)NC(=O)CNC(=O)[C@H](Cc2c[nH]c3ccccc23)NC1=O [HP203] (H-ADGACYGFLWGQC[AEEEA][AEEEA][AEEEA]-NH2; disulfide 5-13; N-terminus assumed)
- toxic effect on mice (behavior observed) (Athymic nude mice): did not have any toxic effect
- toxicity for the tested cell line (viable count, MTT) (LoVo cell line; 5 μg/ml and 138 μg/ml, 24 h, 48 h, 72 h): non-toxic

Molecule: Ac-aYGFVWGEE-(Teg-Glu)2-EAT [MJ012]
- binding of cells to immobilized targeting agent (absorbance at 560 nm) [1]: bind selectively
- binding of cells to immobilized targeting agent (absorbance at 560 nm) (HCT-15-LM1 cell line): bind selectively
- binding of cells to immobilized targeting agent (absorbance at 560 nm) [2]: bind selectively
- binding of cells to immobilized targeting agent (absorbance at 560 nm) (HCT-15 cell line): bind selectively
- binding of cells to immobilized targeting agent (absorbance at 560 nm) [3]: significantly less binding
- binding of cells to immobilized targeting agent (absorbance at 560 nm) [4]: significantly less binding

- Peptides selectively binding to lung tumors (enriched in bio-panning) [5]: selectively binding
Molecule: CYGFLWGQC

- Peptides selectively binding to lung tumors (enriched in bio-panning) [5]: selectively binding
Molecule: CYGFVWGEC (disulfide 1-9 (inferred))

Molecule: a*YGFVWGEE*-(Teg-Glu)2-EAT ([dA]YGFVWGEE[AEEEA]E[AEEEA]E-Cysteamide; lactam N-9; not fully specified; printed as a*YGFVWGEE*-(Teg-Glu)2-EAT) [MJ013]
- binding of cells to immobilized targeting agent (absorbance at 560 nm) [1]: bind selectively
- binding of cells to immobilized targeting agent (absorbance at 560 nm) (HCT-15-LM1 cell line): bind selectively
- binding of cells to immobilized targeting agent (absorbance at 560 nm) [2]: bind selectively
- binding of cells to immobilized targeting agent (absorbance at 560 nm) (HCT-15 cell line): bind selectively
- binding of cells to immobilized targeting agent (absorbance at 560 nm) [3]: significantly less binding
- binding of cells to immobilized targeting agent (absorbance at 560 nm) [4]: significantly less binding
